Q: Which results are given for `Cn1ccnc1`?
A: boiling point: 196 °C; melting point: -6 °C

Q: With `Cc1ccc(S(=O)(=O)N(C)N=O)cc1` as the compound, how does the melting point read?
A: 60 °C

Q: With `Oc1ccc(I)cc1` as the compound, how does the melting point read?
A: 93.5 °C

Q: What about the ready biodegradability of the same compound?
A: not readily biodegradable

Q: With `CCOC(C)(C)OCC` as the compound, how does the boiling point read?
A: 114 °C

Q: Which melting point does the source give for `C=C1C/C(=C/C)C(=O)O[C@@H]2CCN3CC=C(COC(=O)[C@]1(C)O)[C@H]23` here?
A: 218 °C

Q: With `O=C(c1ccccc1)c1ccccc1` as the compound, how does the ready biodegradability read?
A: not readily biodegradable

Q: And the log10 BCF (fish)?
A: 1.08

Q: With `CC(C)c1ccc(O)c(O)c1` as the compound, how does the boiling point read?
A: 271 °C

Q: What about the melting point of the same compound?
A: 78 °C

Q: With `C=C(Cl)CCl` as the compound, how does the boiling point read?
A: 94 °C

Q: And the log10 vapour pressure (mmHg)?
A: 1.79

Q: Which results are given for `Clc1cc(Cl)c2c(c1Cl)Oc1c(Cl)cc(Cl)c(Cl)c1O2`?
A: log10 vapour pressure (mmHg): -10.3; melting point: 238 °C

Q: For `CCCC(CC)C(C)C` (configuration not stated), which boiling point is on record?
A: 138 °C

Q: Which boiling point does the source give for `CC(C)(C)c1ccccc1N` here?
A: 234 °C

Q: With `Clc1cc2c(Cl)ccc(Cl)c2cc1Cl` as the compound, how does the log10 Koa read?
A: 8.13

Q: For `CC(C)OC(=O)C1(S(=O)(=O)c2ccc([N+](=O)[O-])cc2)CCCCCC1`, which melting point is on record?
A: 83.5 °C

Q: Which results are given for `O=c1ccc(=O)[nH][nH]1`?
A: log10 Koc (L/kg): 0.45; melting point: 306 °C; ready biodegradability: readily biodegradable

Q: For `O=C(O)CCC(=O)c1ccccc1`, which melting point is on record?
A: 118 °C

Q: For `CC#CC(=O)OCC`, which boiling point is on record?
A: 163 °C

Q: For `O=c1c(O)c(-c2ccccc2)oc2cc(O)cc(O)c12`, which melting point is on record?
A: 214 °C

Q: For `c1ccc2c(c1)Cc1ccccc1S2`, which boiling point is on record?
A: 341 °C

Q: What about the melting point of the same compound?
A: 128 °C

Q: Which boiling point does the source give for `COc1ccc(Cl)cc1Cl` here?
A: 232 °C

Q: What about the melting point of the same compound?
A: 28.5 °C

Q: With `CCCCCCCCCCCCCCCCCCCCCC(=O)O` as the compound, how does the melting point read?
A: 81 °C

Q: For `CCCCCCCCCCCCCCCCCCOCC(O)CO` (configuration not stated), which melting point is on record?
A: 70.5 °C

Q: With `CCCCC(=O)O[C@]1(C(=O)CO)CC[C@H]2[C@@H]3CCC4=CC(=O)CC[C@]4(C)[C@H]3[C@@H](O)C[C@@]21C` as the compound, how does the melting point read?
A: 218 °C

Q: Which melting point does the source give for `CC(C)[N+](C)(CCOC(=O)C1c2ccccc2Oc2ccccc21)C(C)C.[Br-]` here?
A: 160 °C

Q: For `O=C1CC=CCC1`, which boiling point is on record?
A: 170 °C

Q: Which melting point does the source give for `C=C(C)CNc1ccc(C(C)C(=O)O)cc1` (configuration not stated) here?
A: 107 °C

Q: Which melting point does the source give for `COc1cc2c(c3oc(=O)c4c(c13)CCC4=O)[C@@H]1CCO[C@@H]1O2` here?
A: 288 °C

Q: Which ready biodegradability does the source give for `CC/C=C\CCO` here?
A: readily biodegradable

Q: Which melting point does the source give for `CCCCCCCCCCCCCCCCCC(=O)Cl` here?
A: 23 °C

Q: Which boiling point does the source give for `CCCCC(=O)OCc1ccco1` here?
A: 228 °C

Q: For `CCN(CC)CC#N`, which boiling point is on record?
A: 170 °C

Q: With `CCCCCCCCCCCC(=O)OCC(O)C1OCC(O)C1O` (configuration not stated) as the compound, how does the ready biodegradability read?
A: readily biodegradable

Q: Which melting point does the source give for `CCCCCCC(C)CCCCCC` here?
A: -37.2 °C

Q: Which boiling point does the source give for `Brc1cc(Br)c(Br)s1` here?
A: 260 °C

Q: And the melting point?
A: 29 °C

Q: For `CCCCC(CC)COC(=O)C=CC(=O)OCC(CC)CCCC` (configuration not stated), which ready biodegradability is on record?
A: readily biodegradable

Q: What does the source list for `Cc1ccc(Cl)cc1Cl`?
A: boiling point: 201 °C; log10 vapour pressure (mmHg): -0.339; melting point: -13.5 °C; ready biodegradability: not readily biodegradable

Q: With `O=C(O)Cc1cc(I)c(Oc2ccc(O)c(I)c2)c(I)c1` as the compound, how does the melting point read?
A: 182 °C

Q: With `C[C@]12C=CC(=O)C=C1CC[C@@H]1[C@@H]2[C@@H](O)C[C@@]2(C)[C@H]1CC[C@]2(O)C(=O)COC(=O)CCCc1ccc(N(CCCl)CCCl)cc1` as the compound, how does the melting point read?
A: 164 °C

Q: For `O=C(Nc1ccccc1)c1cc(Cl)ccc1O`, which melting point is on record?
A: 211 °C

Q: Which boiling point does the source give for `CN(C)[Si](C)(C)C` here?
A: 86 °C

Q: With `Cc1ccnc(C)n1` as the compound, how does the boiling point read?
A: 150 °C

Q: What about the melting point of the same compound?
A: -4 °C

Q: For `OCCC1CCNCC1`, which boiling point is on record?
A: 228 °C

Q: Which results are given for `CC(=O)Cc1ccccc1`?
A: boiling point: 216 °C; melting point: -15 °C

Q: Which results are given for `Clc1cc2c(cc1Cl)Oc1cc(Br)c(Br)cc1O2`?
A: log10 vapour pressure (mmHg): -8.33; melting point: 316 °C

Q: With `CCNc1nc(NC(C)(C)C)nc(OC)n1` as the compound, how does the log10 vapour pressure (mmHg) read?
A: -5.7

Q: And the melting point?
A: 124 °C

Q: For `O=C1OC2(OC=C(c3ccccc3)C2=O)c2ccccc21` (configuration not stated), which melting point is on record?
A: 154 °C

Q: Which results are given for `CCSC(=O)N(CC)C1CCCCC1`?
A: log10 Koc (L/kg): 2.54; log10 vapour pressure (mmHg): -2.7; melting point: 11.5 °C; ready biodegradability: not readily biodegradable

Q: Which boiling point does the source give for `CC(=O)C(=O)c1ccccc1` here?
A: 222 °C

Q: Which boiling point does the source give for `O=[N+]([O-])c1ccc(Cl)c(C(F)(F)F)c1` here?
A: 232 °C

Q: And the melting point?
A: 22 °C

Q: For `Clc1cc(Cl)c2c(c1)oc1c(Cl)cc(Cl)cc12`, which log10 vapour pressure (mmHg) is on record?
A: -7.57

Q: And the melting point?
A: 177 °C
